# In patent US20220257552A1, “METHODS OF PRESCREENING AND TREATING BREAST CANCERS WITH SELECTIVE ANDROGEN RECEPTOR MODULATORS” (priority 2021, published 2022):
# Key:
# TNBC [1] = settings: plus chemotherapy arm; cited from earlier work
# BR-0001 TNBC = test: BR-0001 AR-positive TNBC xenograft in NSG mice; format: in vivo; settings: 10 mg/kg/day Formula IX or enzalutamide orally
# Procedure: Xenograft experiment. NSG mice obtained from JAX labs were housed with five animals per cage and were allowed free access to tap water and commercial rat chow (Harlan Teklad 22/5 rodent diet—8640). During the course of the study, the animals were maintained on a 12 hr light:dark cycle. Animals were anesthetized and BR-0001 TNBC fragments of 1 mm^3 (approximately) were implanted subcutaneously in NSG mice. […] Tumor volume was measured thrice weekly. Tumor volume was calculated using the formula length×width×width×0.5236. Once tumors reached greater than 1500-2000 mm^3, animals were sacrificed and tumors weighted and stored for various analysis. Two regions of the same BR-0001 tumor, an AR-positive TNBC xenograft, were immunohistochemically stained with AR antibody (AR N20 from SCBT) (FIGS. 26A and 26B) and compared to an AR-negative (FIG. 26C) TNBC as a negative control. […] The tumor xenograft efficacy experimental results are provided in 27A-27C, with FIGS. 27A and 27B being replicate experiments.
# Tumors from replicate experiment 2 (FIG. 27B) were fixed in formalin and paraffin embedded. Slides were cut and stained with Ki-67 antibody. Ki-67 positive cells (total 200 cells were counted in each slide) in each slide were counted and represented as % stained cells, as shown in FIG. 28B.
# HCI-7 PDX = test: HCI-7 (HCI-007) patient-derived xenograft in NSG mice; format: in vivo; settings: Formula IX 10 mg/kg, enzalutamide 20 mg/kg, orally, vs vehicle
# Procedure: HCI-007 tumor pieces (1 mm^3) were implanted surgically (one per mouse) under the skin on the flanks of NSG mice. Simultaneously, 17β-estradiol pellet (Innovative Research of America) was implanted surgically under the skin of each mouse. Tumors were allowed to grow and reach approximately 100 mm^3 volume (1*W*W*0.526). […] Tumor volume was measured weekly and represented as % change in tumor volume (FIG. 32). Mice were sacrificed and tumors stored for further analysis.
# (§1) All animal protocols were approved by The University of Tennessee Health Science Center (UTHSC) Institutional Animal Care and Use Research Committee. Xenograft experiments were performed as previously published (Narayanan et al. (2014) PLoS One 9, e103202). Briefly, 3 million MCF-7 cells were suspended in 0.05 ml MEM+10% FBS and 0.05 ml Matrigel/nude mouse and were injected subcutaneously. Once the tumor size reached 100-200 mm^3, the animals were randomized and treated orally with the indicated drugs formulated in DMSO:PEG-300 (15:85). HCI-7, HCI-9, and HCI-13 PDXs were gifts kindly donated by Dr. Alana Welm (Huntsman Cancer Institute, Salt Lake City, Utah). HCI PDX tumor fragments (1 mm^3) were surgically implanted under the mammary fat pad in female NOD SCID Gamma (NSG) mice. Tumor volume was measured twice weekly for MCF-7 xenograft and once or twice weekly for HCI PDXs. At the end of the study, animals were sacrificed and tumors were excised, weighed, and stored for various analyses.
# From the several PDXs available, three AR-positive PDXs were identified, based on gene expression profile. […] The enzalutamide dose was selected based on previous published experiments (Park et al. (2016) Cancer Invest 34, 517-520; Pollock et al. (2016) Nat Chem Biol 12, 795-801) as well as from internal experiments conducted in prostate cancer xenografts and in Hershberger studies.
# HCI-9 PDX = test: HCI-9 patient-derived xenograft in NSG mice; format: in vivo; settings: Formula IX 10 mpk, enzalutamide 30 mpk p.o.
# Procedure: as §1
# To determine if the same effect is observed in an AR-positive, but ER-negative breast cancer, HCI-9 tumor fragments were implanted under the mammary fat pad of NSG mice.
# MCF-7-GFP cells = format: cell-based, human; settings: 10 days
# Excerpt: Tumor microenvironment contains tumor epithelial cells, stromal cells, cancer-associated fibroblasts (CAFs), and endothelial cells. The collective function of these cells promotes the aggressive growth of tumors due to secretion of paracrine factors. The CAFs are important for the sustained growth of cancers, and they differ from normal fibroblasts in their capacity to secrete factors that promote proliferation of cancer cells. […] Medium was collected over a period of 10 days and pooled. CAFs were stained with SRB to evaluate the effect of AR ligands on proliferation.
# Conditioned medium was replaced on days 4 and 7 and the cells were stained with SRB to measure viability.
# HCI-13 tumor fragments = test: HCI-13 ex vivo sponge culture, real time PCR; format: cell-based; settings: 10 nM DHT, 1 μM Formula IX, 100 nM fulvestrant, 3 days
# Procedure: (§2) HCI-13 tumors grown in female mice were allowed to reach 500-1000 mm^3 before the animals were sacrificed and the tumors were excised to be used for sponge culture. Patient specimens frozen in liquid nitrogen in freezing medium were used for sponge culture. […] Tumors were sliced into small pieces (˜1 mm^3) and incubated on pre-soaked gelatin sponges (5 fragments/sponge) in 12 well plates containing 1.5 mL medium (MEM+10% FBS+2 mM L-glutamine+10 μg/mL insulin+10 μg/mL hydrocortisone+penicillin:streptomycin). The cultures were performed in triplicates for HCI-13 and singly for patient specimens. Pooled samples (n=5/sponge) from each sponge constituted one sample. Tissues were harvested after 3 days of treatment, RNA extracted, and expression of various genes measured. Although the same procedure was adopted for specimens obtained from breast cancer patients, the specimens were cultured singly (n=5/sponge=one sample) and not in triplicates as performed for HCI-13.
# HCI-13 ER-α = HCI-13 ER-α (Homo sapiens, UniProt P03372, Y537S); settings: 10 nM fulvestrant or 1 μM tamoxifen with 0.1 nM estradiol
# Procedure: (§3) After 6 days of treatment, cells were harvested, and the number of cells was counted. […] Medium was changed after 3 days and re-treated. Cells were fixed after 6 days of treatment and the cell viability was measured by SRB assay. […] Medium was changed, and the cells were re-treated on days 4 and 7. Medium was collected, pooled from triplicates, and stored in −80° C. After 10 days of treatment, cells were fixed, and cell viability was measured using SRB. MCF-7 cells stably transfected with GFP (MCF-7-GFP) were plated in growth medium. Twenty-four hours after plating, cells were fed with the conditioned medium obtained from patient-derived fibroblasts as indicated above. Cells were fed for 10 days with conditioned medium, with medium changed on days 4 and 7. After 10 days of treatment, cells were fixed, and the viability was measured by SRB assay. […] AR-positive, but ER-negative HCI-9 PDX was surgically implanted as 1 mm^3 fragments under the mammary fat pad in NSG mice (n=8-10/group). […] Tumor volume was measured thrice weekly. […] ER-α from HCI-13 was cloned into pCR3.1 vector. Wildtype ER-α and HCI-13 ER-α, ERE-LUC, and CMV-LUC were transfected into COS-1 cells using lipofectamine. […] Twenty four hours after treatment cells were harvested and luciferase assay was performed. […] Values are expressed as average±S.E. from n=3-4/data point.
# Wildtype ER-α = Wildtype ER-α (Homo sapiens, UniProt P03372); settings: 10 nM fulvestrant or 1 μM tamoxifen with 0.1 nM estradiol
# Procedure: as §3
# [2] = system: breast cancer specimens obtained from patients; test: Breast cancer patient specimens, ex vivo sponge culture; format: cell-based, human; settings: 1 μM Formula IX, 100 nM fulvestrant, 3 days
# Procedure: Specimens from breast cancer patients were collected with patient consent under a protocol approved by the UTHSC Institutional Review Board (IRB). Specimens were collected immediately after surgery in RPMI medium containing penicillin:streptomycin and Fungizone and transported to the laboratory on ice. The tissues were finely minced and treated with collagenase for 2 hours.
# as §2
# Like other cancers, breast cancer is also heterogeneous in its genomic profile as well as in its response to treatments. […] Three days after treatment, RNA was isolated from the tissues and expression of ER- and AR-target genes was measured.
# [3] = system: metastatic ER+/HER2- breast cancer; settings: cited from earlier work
# TNBC [4] = settings: with nab-paclitaxel; cited from earlier work
# Sequence of Wildtype ER-α (P03372 whole entry, species assumed): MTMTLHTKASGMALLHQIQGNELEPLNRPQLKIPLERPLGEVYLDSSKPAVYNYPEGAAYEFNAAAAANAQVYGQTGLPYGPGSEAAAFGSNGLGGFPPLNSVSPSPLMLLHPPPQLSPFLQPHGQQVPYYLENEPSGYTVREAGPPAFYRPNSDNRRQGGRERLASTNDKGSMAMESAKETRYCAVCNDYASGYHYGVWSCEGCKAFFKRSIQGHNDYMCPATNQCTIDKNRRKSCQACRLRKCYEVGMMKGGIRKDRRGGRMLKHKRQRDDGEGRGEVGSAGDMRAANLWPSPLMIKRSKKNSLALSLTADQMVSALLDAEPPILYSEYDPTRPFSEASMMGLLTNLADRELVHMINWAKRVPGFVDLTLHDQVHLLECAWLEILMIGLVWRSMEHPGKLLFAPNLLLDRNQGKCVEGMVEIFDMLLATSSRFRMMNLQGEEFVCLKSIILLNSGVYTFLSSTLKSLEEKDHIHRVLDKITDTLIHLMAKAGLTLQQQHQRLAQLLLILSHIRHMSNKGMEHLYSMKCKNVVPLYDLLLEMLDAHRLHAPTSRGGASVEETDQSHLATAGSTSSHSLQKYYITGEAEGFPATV
# Sequence of HCI-13 ER-α (P03372 whole entry Y537S): as the sequence (P03372 whole entry, species assumed) above, with Y537S counted along it
compound,measurement,setting,value
pembrolizumab: PD-L1 blocking antibody,median PFS,TNBC [1],9.7 months
"CNC(=O)c1ccc(N2C(=S)N(c3ccc(C#N)c(C(F)(F)F)c3)C(=O)C2(C)C)cc1F [enzalutamide, reference compound]",tumor growth,BR-0001 TNBC,indistinguishable from vehicle treatment
same,tumor growth (% change in tumor volume),HCI-7 PDX,grew comparably
same,tumor growth trajectory,HCI-9 PDX,Neither Formula IX nor enzalutamide altered the growth trajectory
same,proliferation of breast cancer CAFs,"MCF-7-GFP cells; 10 nM DHT, 1 μM Formula IX, 1 μM enzalutamide","neither AR agonist, DHT and Formula IX, nor AR antagonist enzalutamide, affected the proliferation"
same,proliferation of MCF-7-GFP cells fed conditioned medium from treated CAFs,MCF-7-GFP cells,not
C[C@]12CC[C@@H]3c4ccc(O)cc4C[C@@H](CCCCCCCCC[S+]([O-])CCCC(F)(F)C(F)(F)F)[C@H]3[C@@H]1CC[C@@H]2O (stereo partly shown) [fulvestrant],inhibition of ER-induced pS2 and PR gene expression,HCI-13 tumor fragments,ineffective
same,ER activity,HCI-13 ER-α,not inhibited
same,ER activity,Wildtype ER-α,inhibited
same,specimens in which ER function was inhibited,[2],4 of 8
same,median PFS range,[3]; after failing one estrogen blocking therapy,4.6-9.3 months
same,objective response rate,[3]; depending on the trial,10.9%-21.3%
atezolizumab: PD-L1 blocking antibody,Median progression-free survival (PFS),TNBC [4],7.4 months
